Values of other authors in patent publication EP3771336A1, “REPELLENT COMPOSITION” (priority 2019, dated 2021).
In brackets after ≈: the same amount, converted by molar mass.

Legend:
Daphnia magna = settings: aquatic toxicity, daphnids
[1] = at 25°C

| vapor pressure [1] | solubility in water | SMILES | EC50 (Daphnia magna) |
| --- | --- | --- | --- |
| 4.88 x 10^-5 kPa |  | CCCCCCCCCC(=O)O [Decanoic acid] | 16 µg/mL (≈ 92.9 µM) |
|  | poor solubility in water | CCCCCCCCCCCC(=O)OC(C)C [IPL, propan-2-yl dodecanoate] |  |
|  | immiscible with water | CCCCCCCCCCCCCCCC(=O)OC(C)C [IPP, propan-2-yl hexadecanoate] |  |
| 2.13 x 10^-6 kPa | poorly soluble in water | CCCCCCCCCCCC(=O)O [lauric acid, dodecanoic acid] |  |
